Assay results taken from paper PMC8776730 (Nature Communications, 2022).

Molecular target: T1, FAP-α (Homo sapiens, UniProt Q12884)
T1 construct: purchased R&D SYSTEM
T1 sequence (Q12884 1-760): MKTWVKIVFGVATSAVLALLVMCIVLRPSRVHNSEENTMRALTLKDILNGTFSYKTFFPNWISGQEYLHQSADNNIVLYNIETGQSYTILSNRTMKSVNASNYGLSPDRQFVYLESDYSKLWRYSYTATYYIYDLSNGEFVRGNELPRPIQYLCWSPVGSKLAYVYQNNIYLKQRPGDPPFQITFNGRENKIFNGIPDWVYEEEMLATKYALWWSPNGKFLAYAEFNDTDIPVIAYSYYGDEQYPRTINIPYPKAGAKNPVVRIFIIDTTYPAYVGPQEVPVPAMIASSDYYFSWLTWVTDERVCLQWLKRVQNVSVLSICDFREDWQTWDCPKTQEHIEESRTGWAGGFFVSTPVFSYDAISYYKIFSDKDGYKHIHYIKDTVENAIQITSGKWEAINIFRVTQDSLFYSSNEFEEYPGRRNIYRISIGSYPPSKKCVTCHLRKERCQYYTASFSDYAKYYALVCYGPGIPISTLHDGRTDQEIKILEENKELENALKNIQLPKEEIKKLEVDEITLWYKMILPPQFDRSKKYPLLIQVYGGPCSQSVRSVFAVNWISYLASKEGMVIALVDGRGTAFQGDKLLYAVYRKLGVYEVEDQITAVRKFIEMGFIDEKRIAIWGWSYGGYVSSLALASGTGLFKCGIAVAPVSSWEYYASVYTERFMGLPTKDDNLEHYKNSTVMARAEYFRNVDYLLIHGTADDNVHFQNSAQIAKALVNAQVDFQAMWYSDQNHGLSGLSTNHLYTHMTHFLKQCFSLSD
Assay: FAP-α tailoring (cleavage) followed by HPLC and MALDI-TOF
Type: biochemical
Details: 100 μM molecule, FAP-α 50 μM, 12 h; buffer 50 mM Tris, 1 M NaCl, 1 mg/mL BSA, pH 7.5; HPLC (M3, M5), MALDI-TOF (M1)
Text: To further investigate the FAP-α specific tailoring and BIVA probe assembly in situ simultaneously (Fig. 4a), the high-performance liquid chromatography (HPLC), TEM, and matrix-assisted laser desorption/ionization time-of-flight (MALDI-TOF) mass spectrometry were applied for the characterizations purpose. To specify the cutting of the response tailoring motif (Gly-Pro-Ala), pre-synthesized molecules of R-M3, M3 and M5 were set as controls. […] Comparing the residues peaks with R-M3, the primary sharp peak at 27.4 min can be identified by the R-M3 control (27.6 min). […] The retention time of M1 after co-incubation with inactivated FAP-α was similar to that of M3 (Supplementary Fig. 14). After hydrolyzed by FAP-α, the residues of M1 in situ assembled into nanofibers structures under the complex buffer (Fig. 4c and Supplementary Fig. 15). […] In order to further evaluate the specificity of M1 for different enzymes, including FAP-α, pepsin, pancreatin, lipase, and BSA, we used ThT (Thioflavin T) as a detection probe (Fig. 4e).
Fig. 4 The FAP-α specific molecule tailoring and inducing in situ assembly. a The illustration the working mechanism of BIVA probe based on FAP-α catalytic hydrolysis. b HPLC curves of M3 and M5 after incubation with FAP-α in buffer. R-M3, M3 and M5 were synthesized controls. The TEM image (c), and the MALDI-TOF (d), results of M1 after tailoring by FAP-α in buffer, the red arrows represent the assembled fibrils of M1 after incubation with FAP-α. e The enzyme specificity of M1 in buffer. Buffer: 50 mM Tris, 1 M NaCl, 1 mg/mL, BSA, pH 7.5; Concentration of M1 and M3: 100 μM; Concentration of FAP-α: 50 μM; incubation time: 12 h. […]

Row | Substance | tailoring (cleavage) by FAP-α
1 | mPEG-GPAKLVFFGCGRGD [M3, the non-labeling molecule of M1 (no IR783)] | totally cleaved
2 | mPEG-GPAKLVFFGC(IR783)GRGD [M1] | cut into two parts of R-M1 and PEG residue
